{"source": "paper PMC4129416", "about": "“YLT192, a Novel, Orally Active Bioavailable Inhibitor of VEGFR2 Signaling with Potent Antiangiogenic Activity and Antitumor Efficacy in Preclinical Models” (Scientific Reports, 2014)", "key": {"Acute toxicity test": {"assay": "Acute toxicity test", "assay_type": "in vivo", "settings": "rats", "method": "All the HCT116 model mice were sacrificed after 24 days of treatment.\nAcute toxicity test was done to investigate the safety profiles of YLT192 on rats. Briefly, 7–8 week old female and male rats (n = 10, respectively) were orally administrated with YLT192 at 3000 mg/kg. Then clinical symptoms of the rats including mortality, body weight and gross findings were observed once daily for 14 days. On day 14, the rats were sacrificed and examined by necropsy."}, "VEGFR2": {"target": "VEGFR2 (Homo sapiens, UniProt P35968)", "sequence (P35968 20-1356)": "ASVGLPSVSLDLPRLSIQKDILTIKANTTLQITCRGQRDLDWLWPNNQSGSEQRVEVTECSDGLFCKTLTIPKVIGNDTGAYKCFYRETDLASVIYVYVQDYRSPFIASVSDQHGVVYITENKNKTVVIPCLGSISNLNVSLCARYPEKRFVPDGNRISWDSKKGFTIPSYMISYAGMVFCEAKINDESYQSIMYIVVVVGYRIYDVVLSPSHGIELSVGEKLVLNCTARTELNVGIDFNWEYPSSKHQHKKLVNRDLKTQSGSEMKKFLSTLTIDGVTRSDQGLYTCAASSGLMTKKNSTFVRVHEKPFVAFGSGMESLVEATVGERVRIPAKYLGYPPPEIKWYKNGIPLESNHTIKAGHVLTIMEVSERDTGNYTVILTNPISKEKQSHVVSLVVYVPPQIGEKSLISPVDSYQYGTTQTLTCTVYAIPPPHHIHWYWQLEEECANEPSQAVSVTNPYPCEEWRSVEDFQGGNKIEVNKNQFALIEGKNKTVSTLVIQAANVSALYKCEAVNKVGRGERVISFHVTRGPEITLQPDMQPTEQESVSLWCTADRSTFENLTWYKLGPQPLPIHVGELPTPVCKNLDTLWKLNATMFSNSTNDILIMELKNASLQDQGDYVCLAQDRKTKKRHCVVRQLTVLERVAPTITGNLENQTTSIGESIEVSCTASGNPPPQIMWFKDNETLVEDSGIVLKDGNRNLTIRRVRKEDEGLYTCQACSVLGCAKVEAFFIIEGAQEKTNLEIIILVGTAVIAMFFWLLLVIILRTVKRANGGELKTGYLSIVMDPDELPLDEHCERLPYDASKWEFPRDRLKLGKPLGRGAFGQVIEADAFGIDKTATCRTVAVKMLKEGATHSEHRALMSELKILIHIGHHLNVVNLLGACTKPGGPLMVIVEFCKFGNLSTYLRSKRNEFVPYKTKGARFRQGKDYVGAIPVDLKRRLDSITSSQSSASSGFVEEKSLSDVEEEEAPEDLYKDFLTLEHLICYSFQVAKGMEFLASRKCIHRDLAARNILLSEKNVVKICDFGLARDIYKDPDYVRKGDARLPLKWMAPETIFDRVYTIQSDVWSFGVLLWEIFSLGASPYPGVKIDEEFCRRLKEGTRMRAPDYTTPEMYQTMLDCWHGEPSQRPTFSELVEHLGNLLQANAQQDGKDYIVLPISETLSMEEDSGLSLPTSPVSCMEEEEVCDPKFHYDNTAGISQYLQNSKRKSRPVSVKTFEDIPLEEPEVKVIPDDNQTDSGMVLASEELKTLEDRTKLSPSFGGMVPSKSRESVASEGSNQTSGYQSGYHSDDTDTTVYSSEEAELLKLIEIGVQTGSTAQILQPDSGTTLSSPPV", "assay": "Radiometric kinase assay (Millipore Kinase Profile Service)", "assay_type": "biochemical", "parameters": "purchased Millipore (Kinase Profile Service, UK)", "settings": "means ± SD, two independent experiments, read-out: inhibition rate at 1 μM (%)", "method": "YLT192 was designed and synthesized in the State Key Laboratory of Biotherapy, Sichuan University (Sichuan, China). Its structural formula and synthesis route was shown in Fig. 1A and Supplementary Figure S1, respectively. The kinase inhibitory activity of YLT192 was measured by the use of radiometric assays provided by Kinase Profile Service (Millipore, UK). The effects of YLT192 on kinase activity were detected using the scintillation proximity assay method at an enzymatic level. […] In addition, the inhibitory activity of YLT192 was examined against platelet-derived growth factor receptor (PDGFR)-related kinases because of their structural similarity to the VEGFR2. […] Moreover, excellent selectivity for VEGFR2 was evident compared with a range of unrelated tyrosine and serine/threonine kinases, including fibroblast growth factor receptor 3, polo-like kinase 1, aurora-A, Axl, MET, protein kinase A, c-RAF etc."}, "HCT116 cells": {"tested_on": "HCT116 cells", "assay": "Western blot of apoptosis-related proteins caspase 3 and Bax", "assay_type": "cell-based, human", "settings": "48 hours", "method": "Figure 4 Inhibitory effects of YLT192 on tumor cells. (A) YLT192 inhibited U251 and HCT116 cells proliferation. The EdU incorporation assay was conducted on U251 and HCT116 cells after treated with YLT192 for 24 hours. The EdU-positive (red fluorescent staining) cells and Hoechst staining (blue fluorescent staining) cells represented proliferating and total cells in the fluorescent images, respectively (100×). Quantification was shown on the right panels. (B) YLT192 induced apoptosis of HCT116 cells. HCT116 cells were treated with YLT192 or vehicle for 48 hours followed by flow cytometric analysis of annexin V-FITC and PI staining. The proportion of early apoptotic cells (annexin V positive) and late apoptotic cells (annexin V and PI positive cells) were shown. Typical apoptosis-related proteins caspase 3 and Bax were detected by western blot. Each has the expression of β-actin as internal control. The full size blots were shown in the Supplemental Figure S6 online. […] U251 and HCT116 cells were treated with YLT192 or vehicle for 48 hours and the expression of protein in different signaling pathways were detected by western blot with specific antibodies. […]\nSupplementary Figure S7. […] HCT116 cells were treated with YLT192 or vehicle for 48 hours and then typical apoptosis-related proteins caspase 3 and Bax were detected by western blot. […]"}, "HCT116": {"tested_on": "HCT116", "assay": "Inhibition of tumor cell growth", "assay_type": "cell-based", "settings": "HCT-116; HCT116, human colorectal carcinoma; 48 hour treatment; means ± SD, n=3", "excerpt": "Data are means ± SD, n=3.\ncell line cell type IC50(μM)"}, "HUVEC": {"tested_on": "HUVEC", "assay": "Capillary-like tube formation assay", "assay_type": "cell-based, human", "settings": "designed concentrations; 6 hours; Matrigel", "method": "To elucidate the possible mechanisms of angiogenesis inhibition, tube formation ability of ECs, which is a critical step in the process of angiogenesis, was assessed in HUVEC in vitro.\nThe anti-angiogenesis ability of YLT192 in vitro was evaluated using capillary tube formation assay as described previously. Briefly, 96-well plate was pre-incubated with Matrigel at 37°C for 45 minutes. Then HUVECs (2 × 10^4 cells) suspended in EGM2 medium were seeded onto the Matrigel. They were treated with various concentrations of YLT192. After 6 hours incubation at 37°C, tube formation was assessed with an OLYMPUS inverted digital camera in low power fields (50×). Vandetanib served as positive control. The assay was replicated 3 times."}}}
{"smiles": "CNC(=O)c1cc(Oc2ccc(NC(=O)c3cccc(OC)c3)cc2)ccn1", "note": "[YLT192]", "values": [{"measurement": "NOAEL at 14 days", "setting": "Acute toxicity test; both sexes, rat, in vivo, single oral 3000 mg/kg, 14 days observation, read-out: No Observed Adverse Effect Level (NOAEL)", "value": "> 3000", "unit": "mg/kg"}, {"measurement": "mortality, clinical signs, and body weight", "setting": "Acute toxicity test; oral 3000 mg/kg, 14 days", "value": "no obvious changes were observed"}, {"measurement": "inhibition at 1 µM", "setting": "VEGFR2", "value": "93 ± 3", "unit": "%"}, {"measurement": "expression of pro-apoptotic Bax", "setting": "HCT116 cells", "value": "increased"}, {"measurement": "pro-caspase-3 and its pro-apoptotic cleaved forms", "setting": "HCT116 cells", "value": "a reduction of pro-caspase-3 and an increase in levels of its pro-apoptotic cleaved forms"}, {"measurement": "IC50", "setting": "HCT116", "value": "7.4 ± 0.5", "unit": "µM"}, {"measurement": "tube formation of HUVEC", "setting": "HUVEC", "value": "strongly inhibited"}]}
